One series relates to conscious dogs. Conditions: following a glucagon challenge; cited from earlier work.
A further series has as its system hepatocytes. The note with it: cited from earlier work; for glucose output: glucagon stimulated.
The test system of the next series is db/db and ob/ob mice. Conditions: dose related; cited from earlier work.
Series [1] addresses T1, Human recombinant liver glycogen phosphorylase a (hrl GPa) (Homo sapiens, UniProt P06737).
T1 sequence (P06737 1-847): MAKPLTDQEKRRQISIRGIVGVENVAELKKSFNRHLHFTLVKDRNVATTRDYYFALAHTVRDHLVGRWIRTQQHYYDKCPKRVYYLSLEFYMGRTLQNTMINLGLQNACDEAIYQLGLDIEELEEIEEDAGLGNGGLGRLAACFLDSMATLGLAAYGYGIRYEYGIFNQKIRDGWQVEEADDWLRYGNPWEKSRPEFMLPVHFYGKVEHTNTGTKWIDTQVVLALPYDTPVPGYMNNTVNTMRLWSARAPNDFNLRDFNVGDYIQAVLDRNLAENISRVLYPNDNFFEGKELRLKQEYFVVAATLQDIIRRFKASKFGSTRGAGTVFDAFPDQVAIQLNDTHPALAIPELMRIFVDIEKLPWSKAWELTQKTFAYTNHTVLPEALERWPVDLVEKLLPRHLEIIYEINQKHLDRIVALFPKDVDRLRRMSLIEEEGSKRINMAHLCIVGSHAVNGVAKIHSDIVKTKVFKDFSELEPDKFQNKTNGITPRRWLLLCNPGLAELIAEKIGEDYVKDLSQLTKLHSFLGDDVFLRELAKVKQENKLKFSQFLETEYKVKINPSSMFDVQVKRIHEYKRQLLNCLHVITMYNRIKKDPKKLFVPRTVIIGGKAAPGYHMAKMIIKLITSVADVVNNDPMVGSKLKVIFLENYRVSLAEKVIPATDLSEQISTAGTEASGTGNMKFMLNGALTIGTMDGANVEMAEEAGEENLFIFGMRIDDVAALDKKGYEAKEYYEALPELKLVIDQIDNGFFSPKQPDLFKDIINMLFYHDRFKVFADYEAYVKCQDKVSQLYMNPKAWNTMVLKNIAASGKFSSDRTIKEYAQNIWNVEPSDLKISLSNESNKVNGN
The series can be described thus: Glycogen phosphorylase inhibition, multienzyme coupled assay. The format is biochemical. The note with it: hrl GPa 20 nM, 6 hours at 30° C. As to the method: The activity of the compounds is alternatively determined by measuring the inhibitory effect of the compounds on glycogen degradation, the production of glucose-1-phosphate from glycogen is monitored by the multienzyme coupled assay, as described in EP 0 846 464 A2, general method of Pesce et al (Pesce, M A, Bodourian, S H, Harris, R C, and Nicholson, J F (1977) Clinical Chemistry 23, […]). The reactions were in 384 well microplate format in a volume of 50 μl. The change in fluorescence due to the conversion of the co-factor NAD to NADH is measured at 340 nm excitation, 465 nm emission in a Tecan Ultra Multifunctional Microplate Reader. The reaction is in 50 mM […], 3.5 mM KH2PO4, 2.5 mM MgCl2, 2.5 mM ethylene glycol-bis(b-aminoethyl ether) N,N,N,′N′-tetraacetic acid, 100 mM KCl, 8 mM D-(+)-glucose pH7.2, containing 0.5 mM dithiothreitol, the assay buffer solution. Human recombinant liver glycogen phosphorylase a (hrl GPa) 20 nM is pre-incubated in assay buffer solution with 6.25 mM NAD, 1.25 mg type E1 glycogen at 1.25 mg ml^−1 the reagent buffer, for 30 minutes. […] The non-inhibited activity of GPa is measured in the presence of 10 μl 5% DMSO in assay buffer solution and maximum inhibition measured in the presence of 5 mgs ml^−1 N-ethylmaleimide. […] Relative Fluoresence Units (RFUs) are measured at 340 nm excitation, 465 nm emission. […]

A further series is described as follows: Thermodynamic solubility. Format: physicochemical. Conditions: phosphate buffer, pH 7.4, aqueous buffer, thermodynamic from solid, 0.1 M phosphate at pH7.4 for 24 hours. Here is the method:
The thermodynamic solubility data for the compounds of the invention as given above may be measured by agitating the compound in 0.1 M phosphate at pH7.4 for 24 hours, then analysis of the supernatant (for example by LCUV/MS) using a solution (for example in DMSO) of known concentration as the calibrant.

In brackets after ≈: the same amount, converted by molar mass.

Turning to `CCN1C(C)=C(C(=O)OC(C)C)C(c2ccccc2Cl)C2=C1COC2=O` (stereo not drawn) [Bay R 3401], in the series on conscious dogs, the arterial plasma glucose result is “reduced significantly” and the hepatic glucose output entry is on record as “reduced significantly”.

For `CN(C)C(=O)[C@H](O)[C@H](Cc1ccccc1)NC(=O)c1cc2cc(Cl)ccc2[nH]1` [CP91149], in the series with hepatocytes, the glucagon stimulated glycogenolysis result is “reduce” and the glucose output result was “reduce”. For the same compound, in the series on db/db and ob/ob mice, the plasma glucose concentration entry was “reduced, in a dose related manner”.

For `O=C(N[C@@H](Cc1ccc(F)cc1)C(=O)N1CCC(O)CC1)c1cc2cc(Cl)ccc2[nH]1` [CP320626], in the series with hepatocytes, the glucagon stimulated glycogenolysis entry is “reduce” and the glucose output result was “reduce”. Besides, the plasma glucose concentration entry with db/db and ob/ob mice was “reduced, in a dose related manner”.

For the compound `CN(C(=O)[C@@H](N)CO)[C@@H]1c2ccccc2C[C@H]1NC(=O)c1cc2cc(Cl)ccc2[nH]1.Cl` [Example 2, 5-Chloro-N-{(1R,2R)-1-[methyl(seryl)amino]-2,3-dihydro-1H-inden-2-yl}-1H-indole-2-carboxamide hydrochloride], in series [1], the IC50 was found to be 500 nM. In the series “Thermodynamic solubility”, this compound registered a solubility at 24 h of 173 µM.

On to `CN(C(=O)[C@H](O)CO)[C@@H]1c2ccccc2C[C@H]1NC(=O)c1cc2cc(Cl)ccc2[nH]1` [Example 19, 5-Chloro-N-{(1R,2R)-1-[[(2R)-2,3-dihydroxypropanoyl](methyl)amino]-2,3-dihydro-1H-inden-2-yl}-1H-indole-2-carboxamide], for which the IC50 in series [1] is 110 nM. In the series “Thermodynamic solubility”, this compound returned a solubility at 24 h of 119 µM (≈ 50.9 µg/mL).

The values are drawn from US20060199966A1, “Indol-2-amides as glycogen phosphorylase inhibitors” (AstraZeneca AB, priority 2003, published 2006).
